Measurements from article PMC10532587, “An Investigation of Structure–Activity Relationships and Cell Death Mechanisms of the Marine Alkaloids Discorhabdins in Merkel Cell Carcinoma Cells” (Marine Drugs, 2023).
Where two headings read alike, the source gives them in different places.

Columns and labels:
Waga = experiment: Cell survival by CellTiterGlo, VP-MCC line Waga; assay type: cell-based; conditions: for IC50: CellTiterGlo, normalized to DMSO; for AUC (arbitrary units) WaGa: area under the dose-response curve
MCC cell lines = experiment: Cell survival by CellTiterGlo, MCC cell lines together; assay type: cell-based; conditions: for averaged potency (IC50) across all MCC cell lines tested: average over MCC cell lines
Method: (§1) Three methods were employed for assessment of MCC and control cell survival/viability after discorhabdin treatment, two metabolic assays and a cell permeability assay. For all three methods, cells were plated in 384-well plates at 2500 cells/well and treated with various concentrations of discorhabdins for various time periods. CellTiterGlo^TM (Promega, Madison, WI, USA) measures cellular ATP content and was used to estimate potency of discorhabdins in cell viability assays as previously described. Continuous monitoring of metabolic activity was accomplished using a cellular reducing potential luminescence assay, the RealTime-Glo^TM MT Cell Viability Assay (Promega, Madison, WI, USA) according to manufacturer’s instructions. Loss of cell plasma membrane integrity was assessed using a cell-impermeant molecule that becomes fluorescent upon binding DNA [82] in parallel with apoptosis detection per manufacturer’s instructions (RealTimeGlo^TM Annexin V Apoptosis and Necrosis Assay-Promega). Two additional assays of apoptotic cell death were also used. Caspase activation in response to treatment of MCC cells by discorhabdins or bortezomib (as a positive control) was measured using the CaspaseGlo® 3/7 Assay (Promega, Madison, WI, USA) according to the manufacturer’s instructions at multiple time points. Inhibition of apoptotic cell death was investigated using pre-treatment of cells with for 1 h with the pan-caspase inhibitor Z-VAD-FMK (Enzo Life Sciences, Farmingdale, NY, USA) followed by treatment with discorhabdins or bortezomib and estimation of cell viability as outlined above.
(§2) In order to compare responses among all of the discorhabdins and cell lines (98 combinations), dose–response curves were generated using identical discorhabdin dilution series. GraphPad Prism 8 (San Diego, CA, USA) software was utilized to graph dose–response data and to calculate IC50 values and area under the dose–response curves (AUC) along with 95% confidence interval estimates using four-parameter logistic nonlinear regression analysis. For further analysis and comparisons, AUC for each cell line/discorhabdin pair was visualized in a heatmap generated in R version 1.3.1073 (R Core Team (2013). R: A language and environment for statistical computing. R Foundation for Statistical Computing, Vienna, Austria, http://www.R-project.org/ (accessed on 12 January 2023).

MCC26 = experiment: Cell survival by CellTiterGlo, VN-MCC line MCC26; assay type: cell-based; conditions: for IC50: CellTiterGlo, normalized to DMSO; for AUC (arbitrary units) MCC26: area under the dose-response curve
MKL-1 = experiment: Cell survival by CellTiterGlo, VP-MCC line MKL-1; assay type: cell-based; conditions: VP-MCC; for IC50: MKL-1, CellTiterGlo, normalized to DMSO, read-out: IC50 (nM) MKL-1; for AUC (arbitrary units) MKL-1: area under the dose-response curve
HaCaT = experiment: Cell survival by CellTiterGlo, control cells; assay type: cell-based, human; conditions: for IC50: Homo sapiens, HaCaT; for AUC (arbitrary units) HaCaT: area under the dose-response curve, control cells
[1] = test system: VP-MCC cell lines (MKL-1, MKL-2, and Waga); experiment: Selectivity VP-MCC versus control cells (average AUC); assay type: cell-based
Description: as §2
Figure S41: Discorhabdi nselectivity
Discorhabdin selectivity for VP -MCC and VN- MCCcells was estimated by comparison of activity (average AUC) for each dis corhabdin against VP -MCC (panel A) or VN- MCC (panel B) cell lines compared to control cells . Discorhabdins were sort ed by selectivity from most to least selective. - fold dif fer ence = (av e VN -MCC or VP -MCC AUC/ control AUC). Error bars […]
(1 picture or pasted object on this page, not shown here)

MKL-2 = experiment: Cell survival by CellTiterGlo, VP-MCC line MKL-2; assay type: cell-based; conditions: for IC50: CellTiterGlo, normalized to DMSO; for AUC (arbitrary units) MKL-2: area under the dose-response curve
[2] = test system: control (HaCaT) and Merkel cell carcinoma cell lines; experiment: Cell survival by CellTiterGlo, all seven cell lines; assay type: cell-based; conditions: MCC and control cell lines
UISO = experiment: Cell survival by CellTiterGlo, VN-MCC line UISO; assay type: cell-based; conditions: for IC50: CellTiterGlo, normalized to DMSO; for AUC (arbitrary units) UISO: area under the dose-response curve
caspase-3 = test system: caspase-3; set-up: method as in PMID 9917313; conditions: cited from earlier work
MCC13 = experiment: Cell survival by CellTiterGlo, VN-MCC line MCC13; assay type: cell-based; conditions: for IC50: CellTiterGlo, normalized to DMSO; for AUC (arbitrary units) MCC13: area under the dose-response curve
caspase-3/7 [3] = experiment: Caspase-3/7 activation (CaspaseGlo 3/7) in MKL-1 cells; assay type: cell-based; conditions: 8 or 24 h; normalized to DMSO control
Method: (§3) (a) Caspase activation. Cells were treated for 8 or 24 h with indicated discorhabdins or bortezomib. Caspase-3/7 activity was determined (Promega CaspaseGLO-3/7) and normalized to untreated (DMSO) control cells. Error bars represent sd (n = 4). (b). Apoptosis/necrosis. Cells were treated for up to 24 h with the indicated discorhabdins and assessed for Annexin binding and cell permeability using the Promega RealTime-Glo™ Annexin V Apoptosis and Necrosis Assay kit. Luminescence indicates Annexin binding, fluorescence indicates membrane permeability.
as §1, with “Inhibition of apoptotic cell death was investigated using pre-treatment of cells with for 1 h with the pan-caspase inhibitor Z-VAD-FMK (Enzo Life Sciences, Farmingdale, NY, USA) followed by treatment with discorhabdins or bortezomib and estimation of cell viability as outlined above.” left out

caspase-3/7 [4] = experiment: Caspase-3/7 activation (CaspaseGlo 3/7) in UISO cells; assay type: cell-based; conditions: 8 or 24 h; normalized to DMSO control
Method: as §3
as §1, with “Inhibition of apoptotic cell death was investigated using pre-treatment of cells with for 1 h with the pan-caspase inhibitor Z-VAD-FMK (Enzo Life Sciences, Farmingdale, NY, USA) followed by treatment with discorhabdins or bortezomib and estimation of cell viability as outlined above.” left out

MCC cells [5] = experiment: Cell death after pretreatment with pan-caspase inhibitor Z-VAD-FMK; assay type: cell-based; conditions: Z-VAD-FMK 40 µM, 1 h pretreatment; discorhabdins 10 µM, bortezomib 1 µM
Method: as §1, with “Inhibition of apoptotic cell death was investigated using pre-treatment of cells with for 1 h with the pan-caspase inhibitor Z-VAD-FMK (Enzo Life Sciences, Farmingdale, NY, USA) followed by treatment with discorhabdins or bortezomib and estimation of cell viability as outlined above.” left out

UISO cells = experiment: Mitochondrial membrane potential (JC-10) in UISO cells; assay type: cell-based; conditions: 10 µM, normalized to DMSO control
Method: (§4) Cells were treated with the indicated discorhabdins (10 µM) and assessed for mitochondrial membrane potential (MMP) using JC-10 ratiometric dye. JC-10 was added for the last hour of incubation. Cellular reducing potential was assessed using a RealTimeGlo MT Cell Viability kit, and cellular ATP levels using CellTiterGlo. All values were normalized to DMSO control. Error bars (n = 3–4) represent sd. See Figures S45 and S46 for additional cell line/discorhabdin combinations, concentrations, and time points for reducing potential and MMP, respectively.
(§5) Mitochondrial membrane potential (MMP) was assessed using the JC-10 ratiometric dye (Sigma, St. Louis, MO, USA). UISO or MKL-1 cells were treated in black-walled, clear-bottom 384-well plates (Corning Life Sciences, Durham, NC, USA) with discorhabdins or doxorubicin (Sigma, St. Louis, MO, USA) as a positive control for up to 24 h with JC-10 for the last 1 h of incubation. Red/green fluorescence signals were measured, the red/green ratio for each well was calculated and normalized to untreated (DMSO) control wells for the same cell line and incubation time to determine relative MMP.

MCC cells [6] = experiment: Cellular ATP content (CellTiterGlo), time course; assay type: cell-based; conditions: 10 µM, normalized to DMSO control
Method: as §4
(§6) Three methods were employed for assessment of MCC and control cell survival/viability after discorhabdin treatment, two metabolic assays and a cell permeability assay. For all three methods, cells were plated in 384-well plates at 2500 cells/well and treated with various concentrations of discorhabdins for various time periods. […] Continuous monitoring of metabolic activity was accomplished using a cellular reducing potential luminescence assay, the RealTime-Glo^TM MT Cell Viability Assay (Promega, Madison, WI, USA) according to manufacturer’s instructions. Loss of cell plasma membrane integrity was assessed using a cell-impermeant molecule that becomes fluorescent upon binding DNA [82] in parallel with apoptosis detection per manufacturer’s instructions (RealTimeGlo^TM Annexin V Apoptosis and Necrosis Assay-Promega). […]

MKL-1 cells = experiment: Mitochondrial membrane potential (JC-10) in MKL-1 cells; assay type: cell-based; conditions: 10 µM, normalized to DMSO control
Method: as §4, §5

MCC cells [7] = experiment: Cellular reducing potential (RealTime-Glo MT Cell Viability); assay type: cell-based; conditions: 10 µM; normalized to DMSO control
Method: as §4, §6

[8] = prostate cancer xenograft model; cited from earlier work
[9] = control skin cell line, CellTiterGlo, normalized to DMSO, read-out: IC50 (nM) HaCaT

SMILES	IC50 (Waga) [nM]	AUC (arbitrary units) WaGa (Waga) [arbitrary units]	averaged potency (IC50) across all MCC cell lines tested (MCC cell lines)	IC50 (MCC26) [nM]	AUC (arbitrary units) MCC26 (MCC26) [arbitrary units]	IC50 (MKL-1) [nM]	AUC (arbitrary units) MKL-1 (MKL-1) [arbitrary units]	IC50 (HaCaT; [9]) [nM]	AUC (arbitrary units) HaCaT (HaCaT) [arbitrary units]	increased activity against VP-MCC compared to the control [1] [fold]	IC50 (MKL-2) [nM]	AUC (arbitrary units) MKL-2 (MKL-2) [arbitrary units]	activity on cell viability, in words [2]	IC50 (UISO) [nM]	AUC (arbitrary units) UISO (UISO) [arbitrary units]	IC50 (MCC13) [nM]	AUC (arbitrary units) MCC13 (MCC13) [arbitrary units]	caspase-3/7 activation, MKL-1 (caspase-3/7 [3])	caspase-3/7 activation, UISO (caspase-3/7 [4])	mitochondrial membrane potential (MMP), UISO (UISO cells)	other results
Cn1cc2c3c1C(=O)C1=C(C3=NCC2)C2(C=C(Br)C(=O)C(Br)=C2)CCN1 [Compound 17, discorhabdin P]	106	14.11	sub-micromolar	1210	140.1	68	7.146	1260	150.9	> 10	87	17.05	more potent than discorhabdin C in all seven cell lines	292	50.65	499	64.76	–	–	–	caspase-3 inhibition (caspase-3): reported to inhibit caspase-3
CC(C)C[C@H](NC(=O)[C@H](Cc1ccccc1)NC(=O)c1cnccn1)B(O)O [bortezomib, reference compound]	–	–	–	–	–	–	–	–	–	–	–	–	–	–	–	–	–	robustly activates caspase	robustly activates caspase	–	effect of Z-VAD-FMK pretreatment on induced MCC cell death (MCC cells [5]): reduced bortezomib-induced
O=C1C2=C3C4=[N+](CCc5c[nH]c1c54)[C@@H]1C(=O)C=C4S[C@@H](C[C@@]43[C@H]1O)N2 [Compound 12, (−)-(1R,2S,6R,8S) discorhabdin L]	440	55.36	sub-micromolar	1130	140.6	83	13.23	2550	290.4	–	245	50.71	–	660	103	466	93.66	lack of caspase-3/7 activation	lack of caspase-3/7 activation	significantly reduced	cellular ATP content (MCC cells [6]): loss of cellular ATP content was dramatic and rapid; mitochondrial membrane potential (MMP), MKL-1 (MKL-1 cells): significantly reduced; cellular reducing potential (MCC cells [7]): dropped significantly; in vivo toxicity in animals [8]: minimal in vivo toxicity
O=C1C=C2S[C@H]3C[C@]2(C=C1Br)C1=C(N3)C(=O)c2[nH]cc3c2C1=NCC3 [Compound 2, (+)-(6S,8S) discorhabdin B]	75	9.624	sub-micromolar	731	83.94	25	3.635	1040	133.9	> 10	90	14.49	comparable activity against MCC and control cell lines	331	39.51	426	51.68	lack of caspase-3/7 activation	lack of caspase-3/7 activation	significantly reduced	fold more active than discorhabdin Q (3) against MCC cells (MCC cell lines; comparator discorhabdin Q (3)): > 10 fold; fold more active against MCC cells compared to 3 (MCC cell lines; comparator printed as 3, sentence is about discorhabdin G*/I (4)): 3 fold; cellular ATP content (MCC cells [6]): loss of cellular ATP content was dramatic and rapid; mitochondrial membrane potential (MMP), MKL-1 (MKL-1 cells): significantly reduced; cellular reducing potential (MCC cells [7]): dropped significantly; IC50 (HaCaT; read-out: IC50 for control cells): ≤ 1000 nM
